“Also recorded” adds a separate entry of the source.
Key:
[1] = test system: protein kinase C (PKC); type: binding, human
Description: (§1) The protein kinase C (PKC) affinity of EBC-46 and EBC-46 analogs was performed via competition with ^3H-phorbol-12,13-dibutyrate (^3H-PDBu). This procedure entailed a glass-fiber filtration method to determine bound radioligand.
(§2) Preparation of PKC binding assay buffer: To a 50 mL polypropylene tube was added Tris-HCl (pH 7.4, 1 M, 1 mL), KCl (1 M, 2 mL), CaCl2 (0.1 M, 30 μL), and bovine serum albumin (BSA, 40 mg, Sigma-Aldrich). This mixture was diluted to 20 mL with deionized H2O and mixed gently. The buffer was stored on ice until use.
(§3) Preparation of phosphatidylserine (PS) vesicles: For every two assays, 3.5 mg phosphatidylserine (Avanti Polar Lipids, porcine, 25 mg/mL CHCl3 solution) was concentrated by removing chloroform under a stream of nitrogen followed by reduced pressure. […]
(§4) For each data point, 280 μL of “Master Mix” Solution and 20 μL of analog compound at a specified concentration were added to a polypropylene tube. […] Maximal ^3H-PDBu binding was assessed in triplicate by substitution of the analog compound with 20 μL DMSO. […] Scintillation vials were filled with Bio-Safe II scintillation fluid (5 mL) and measured for radioactivity using a Beckman LS 6000SC scintillation counter. […] The Kd of ^3H-PDBu for PKC isoforms was measured separately via saturation binding experiments under identical conditions.

[2] = test system: PKC-βI-GFP; type: cell-based, Chinese hamster
Description: 2 mL of fresh F-12−/− was then added to each well, taking care not to disturb adherent cells. […] 250 μL of the Lipofectamine 2000 suspension was added to the DNA suspension and the solution incubated for 30 minutes at RT. 500 μL of the Lipofectamine/DNA suspension was added to the respective wells of the 6-well plate. The cells were then incubated at 37° C.

[3] = target: T1, PKC-βI (Homo sapiens, UniProt P05771); type: binding
T1 construct: purchased Invitrogen
T1 sequence (P05771 whole entry): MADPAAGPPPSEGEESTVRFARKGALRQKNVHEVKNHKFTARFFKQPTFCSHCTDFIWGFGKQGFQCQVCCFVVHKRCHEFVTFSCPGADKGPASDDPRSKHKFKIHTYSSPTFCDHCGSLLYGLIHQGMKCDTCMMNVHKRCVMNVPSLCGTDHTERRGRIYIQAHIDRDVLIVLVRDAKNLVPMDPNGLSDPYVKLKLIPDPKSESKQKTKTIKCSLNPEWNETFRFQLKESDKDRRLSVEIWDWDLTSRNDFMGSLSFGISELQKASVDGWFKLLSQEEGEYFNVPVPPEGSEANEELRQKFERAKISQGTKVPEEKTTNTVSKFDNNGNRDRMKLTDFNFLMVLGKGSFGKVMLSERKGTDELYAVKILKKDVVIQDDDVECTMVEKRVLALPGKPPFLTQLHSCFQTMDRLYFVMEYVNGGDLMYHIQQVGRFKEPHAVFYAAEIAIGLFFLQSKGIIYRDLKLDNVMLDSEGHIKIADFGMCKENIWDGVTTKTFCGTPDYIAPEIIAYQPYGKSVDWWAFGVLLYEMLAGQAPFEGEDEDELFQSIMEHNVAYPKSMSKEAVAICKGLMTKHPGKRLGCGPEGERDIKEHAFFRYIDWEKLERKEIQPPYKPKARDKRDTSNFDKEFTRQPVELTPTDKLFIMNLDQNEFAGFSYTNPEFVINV
Description: as §1, §2, §3, §4

[4] = Incubation in neutral aqueous media; type: physicochemical; conditions: upon incubation in neutral aqueous media
[5] = test system: mast cell tumors; conditions: canines, cited from earlier work
[6] = target: PKC δ (Homo sapiens, UniProt Q05655); test: PKC binding of trigowiin A; conditions: type of constant not given; read-out: binds with PKC δ
PKC δ, sequence (Q05655 whole entry): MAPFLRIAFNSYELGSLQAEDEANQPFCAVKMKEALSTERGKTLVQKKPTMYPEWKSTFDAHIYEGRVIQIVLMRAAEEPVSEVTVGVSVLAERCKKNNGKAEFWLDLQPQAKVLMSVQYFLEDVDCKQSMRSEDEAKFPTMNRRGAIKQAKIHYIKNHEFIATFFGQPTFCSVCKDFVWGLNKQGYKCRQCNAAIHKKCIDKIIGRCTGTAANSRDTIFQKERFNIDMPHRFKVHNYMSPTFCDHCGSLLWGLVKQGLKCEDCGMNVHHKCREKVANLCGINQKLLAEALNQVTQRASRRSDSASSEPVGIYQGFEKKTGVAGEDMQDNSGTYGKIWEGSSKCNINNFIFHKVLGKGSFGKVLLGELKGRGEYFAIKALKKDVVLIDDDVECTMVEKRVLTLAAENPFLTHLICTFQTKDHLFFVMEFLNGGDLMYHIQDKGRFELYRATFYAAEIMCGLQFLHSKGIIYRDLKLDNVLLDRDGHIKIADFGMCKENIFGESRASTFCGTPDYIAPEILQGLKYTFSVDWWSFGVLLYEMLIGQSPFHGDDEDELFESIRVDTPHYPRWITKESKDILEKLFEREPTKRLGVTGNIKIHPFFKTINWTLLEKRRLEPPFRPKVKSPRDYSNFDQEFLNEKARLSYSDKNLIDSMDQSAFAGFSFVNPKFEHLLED

[7] = test system: chikungunya virus (CHKV); conditions: cited from earlier work
[8] = target: PKC β (Homo sapiens, UniProt P05771); test: PKC binding of trigowiin A; conditions: type of constant not given; read-out: binds with PKC β
PKC β, sequence (P05771 whole entry, species assumed): as the sequence (P05771 whole entry) above

C/C=C(\C)C(=O)O[C@@H]1[C@@H](C)[C@@]2(O)C([C@@H]3C(C)(C)[C@]13OC(=O)[C@@H](C)CC)[C@@H]1O[C@]1(CO)[C@@H](O)[C@]1(O)C(=O)C(C)=C[C@H]12 (stereo partly shown) [EBC-46, tigilanol tiglate]
PKC binding affinity [1]: potent PKC affinity
translocation of PKC-βI-GFP [2]: modest translocation; also recorded: robust translocation
PKC isoform binding selectivity [3]: isoform-selective binding
stability in neutral aqueous media [4]: spontaneously undergo Payne rearrangement to EBC-211
remission ([5]; after a second dose): 88%
complete response ([5]; after a single intratumoral injection): 75%

CC(=O)O[C@@H]1[C@@H](C)[C@@]2(O)C([C@@H]3C(C)(C)[C@]13OC(C)=O)[C@@H]1O[C@]1(CO)[C@@H](O)[C@]1(O)C(=O)C(C)=C[C@H]12 (stereo partly shown) [SUW401]
PKC binding affinity [1]: very low PKC binding affinity

trigowiin A
PKC δ binding value (constant type not stated) [6]: 20.3 nM
antiviral activity against chikungunya virus [7]: moderate antiviral activity
PKC β binding affinity [8]: 19.3 nM
